Experimental findings from PubChem BioAssay AID1195 (EPA DSSTox, 2008) are described below.

This data set deals with human maximum recommended daily dose, FDA database. Kind of data set: DSSTox (FDAMDD) FDA Maximum (Recommended) Daily Dose Database. The following applies: hits give low values. The method, boiled down: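 MRDD values come from clinical trials with daily oral dosing, usually for 3–12 months, for the average adult, in mg/day converted to mg/kg-bw/day assuming 60 kg. Antineoplastic mg/m2 doses are divided by 37. Activity score maps log10(1/MRDD mmol) onto 1–100.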

The mark [1] stands for this setting: TherapeuticCategory: antibacterial.
Setting [2] is: TherapeuticCategory: antidepressant.
Setting [3] is: TherapeuticCategory: antihypertensive.
[4] abbreviates: TherapeuticCategory: antihyperlipoproteinemic.
Setting [5] is: TherapeuticCategory: antipsychotic.
The mark [6] stands for this setting: TherapeuticCategory: diagnostic aid.
Setting [7] is: TherapeuticCategory: antineoplastic.
Setting [8] is: TherapeuticCategory: antitussive.
Setting [9] is: TherapeuticCategory: antihistaminic.
The mark [10] stands for this setting: TherapeuticCategory: progestogen.
[11] abbreviates: TherapeuticCategory: anticonvulsant.
[12] abbreviates: TherapeuticCategory: anticholinergic.

With `COc1cccc(OC)c1C(=O)N[C@@H]1C(=O)N2[C@@H]1SC(C)(C)[C@@H]2C(=O)O`, the maximum recommended daily dose (mmol/kg-bw/day) under setting [1] is 0.526. Take `CN1Cc2c(N)cccc2C(c2ccccc2)C1` (configuration not stated): under setting [2], the maximum recommended daily dose (mmol/kg-bw/day) is 0.014. As for `O=C(O)c1cn(C2CC2)c2cc(N3CCNCC3)c(F)cc2c1=O`, under setting [1], the maximum recommended daily dose (mmol/kg-bw/day) was 0.0401. Same read-out and setting: the same measure for `Cn1nnnc1SCC1=C(C(=O)O)N2C(=O)[C@@H](NC(=O)[C@H](OC=O)c3ccccc3)[C@H]2SC1`: 0.195. Turning to `COc1cc2nc(N3CCN(C(=O)C4CCCO4)CC3)nc(N)c2cc1OC` (configuration not stated), the maximum recommended daily dose (mmol/kg-bw/day) under setting [3] is 0.00086. Take `CNCCc1ccc(OC(=O)C(C)C)c(OC(=O)C(C)C)c1`: the maximum recommended daily dose (mmol/kg-bw/day) (TherapeuticCategory: cardiotonic) is 0.0325. As to `OC(c1ccccc1)(c1ccccc1)C1CCCCN1` (configuration not stated), the maximum recommended daily dose (mmol/kg-bw/day) (TherapeuticCategory: CNS stimulant) was 0.000374. On to `Cc1cccc(Nc2ccncc2S(=O)(=O)NC(=O)NC(C)C)c1`, for which the maximum recommended daily dose (mmol/kg-bw/day) (TherapeuticCategory: diuretic) was 0.00956. As to `CCN(CC)CCC1(c2ccccc2)CCC(=O)NC1=O` (configuration not stated), the maximum recommended daily dose (mmol/kg-bw/day) (TherapeuticCategory: anticholinergic, antiparkinsonian) is 0.00289. Consider `CC[C@@H](CO)NC(=O)[C@@H]1C=C2c3cccc4[nH]cc(c34)C[C@H]2N(C)C1`, for which the maximum recommended daily dose (mmol/kg-bw/day) (TherapeuticCategory: oxytocic) is 3.92e-05. On to `CCC(=O)c1ccc2c(c1)N(CC(C)N(C)C)c1ccccc1S2` (configuration not stated), for which the maximum recommended daily dose (mmol/kg-bw/day) (TherapeuticCategory: sedative, hypnotic) is 0.00245. With `CCC(C)(C)C(=O)O[C@H]1C[C@@H](C)C=C2C=C[C@H](C)[C@H](CC[C@@H]3C[C@@H](O)CC(=O)O3)[C@H]21`, the maximum recommended daily dose (mmol/kg-bw/day) under setting [4] is 0.00159. For `COc1ccc2nc(S(=O)Cc3ncc(C)c(OC)c3C)[nH]c2c1` (configuration not stated), under “TherapeuticCategory: antiulcerative”, the maximum recommended daily dose (mmol/kg-bw/day) was 0.00579. Regarding `CC(O)(P(=O)(O)O)P(=O)(O)O`, for the setting “TherapeuticCategory: calcium regulator”, the maximum recommended daily dose (mmol/kg-bw/day) is 0.0971. As for `CN(C)CCCN1c2ccccc2Sc2ccc(C(F)(F)F)cc21`, under setting [5], the maximum recommended daily dose (mmol/kg-bw/day) is 0.00709. In the case of `Nc1c(N=Nc2ccc(-c3ccc(N=Nc4cc(S(=O)(=O)O)c5ccccc5c4N)cc3)cc2)cc(S(=O)(=O)O)c2ccccc12`, under setting [6], the maximum recommended daily dose (mmol/kg-bw/day) was 0.00538. As for `C[C@]12CC[C@@H]3c4ccc(OC(=O)Cc5ccc(N(CCCl)CCCl)cc5)cc4CC[C@H]3[C@@H]1CC[C@@H]2OC(=O)Cc1ccc(N(CCCl)CCCl)cc1`, where the note is “TherapeuticCategory: estrogen”, the maximum recommended daily dose (mmol/kg-bw/day) is 0.0211. Consider `CNC1(C)C2CCC(C2)C1(C)C` (configuration not stated), for which the maximum recommended daily dose (mmol/kg-bw/day) under setting [3] was 0.00249. In the case of `CCCCNC(=O)NS(=O)(=O)c1ccc(N)cc1`, under “TherapeuticCategory: antidiabetic”, the maximum recommended daily dose (mmol/kg-bw/day) was 0.0615. Regarding `CC(C)(C)NC(=O)[C@@H]1CN(Cc2cccnc2)CCN1C[C@@H](O)C[C@@H](Cc1ccccc1)C(=O)N[C@H]1c2ccccc2C[C@H]1O`, under “TherapeuticCategory: antiviral”, the maximum recommended daily dose (mmol/kg-bw/day) is 0.0264. Consider `CN(C)CCCOC1(Cc2ccccc2)CCCCCC1`, for which the maximum recommended daily dose (mmol/kg-bw/day) (TherapeuticCategory: vasodilator) was 0.0345. Regarding `Nc1nc(=S)c2[nH]cnc2[nH]1`, under setting [7], the maximum recommended daily dose (mmol/kg-bw/day) is 0.0324.

`COc1ccc2c(c1)[C@]13CCCC[C@@H]1[C@H](C2)N(C)CC3`: the maximum recommended daily dose (mmol/kg-bw/day) under setting [8] is 0.00737.

With `C#CCN(C)[C@H](C)Cc1ccccc1`, under “TherapeuticCategory: antiparkinsonian”, the maximum recommended daily dose (mmol/kg-bw/day) is 0.000892.

Turning to `COCC(=O)Nc1c(I)c(C(=O)NCC(O)CO)c(I)c(C(=O)N(C)CC(O)CO)c1I` (configuration not stated), under setting [6], the maximum recommended daily dose (mmol/kg-bw/day) was 0.126. Regarding `CC1(C)C(\C=C/C=C\C=C/C=C2/N(CCCCS(=O)(=O)O)c3ccc4ccccc4c3C2(C)C)=[N+](CCCCS(=O)(=O)[O-])c2ccc3ccccc3c21`, the maximum recommended daily dose (mmol/kg-bw/day) under setting [6] is 0.000645. As to `CN1CCCC(=C(c2cccs2)c2cccs2)C1`, the maximum recommended daily dose (mmol/kg-bw/day) under setting [8] was 0.0182.

For the molecule `COc1cc(NS(C)(=O)=O)ccc1Nc1c2ccccc2nc2ccccc12`, under setting [7], the maximum recommended daily dose (mmol/kg-bw/day) is 0.00823. Take `C[C@H](N)[C@H](O)c1cccc(O)c1`: the maximum recommended daily dose (mmol/kg-bw/day) (TherapeuticCategory: adrenergic) was 0.0498. As for `O=S(=O)(O)CCS`, the maximum recommended daily dose (mmol/kg-bw/day) (TherapeuticCategory: mucolytic, uroprotective) is 0.0281. For the molecule `C[C@@H]1C[C@H]2[C@@H]3C[C@H](F)C4=CC(=O)C=C[C@]4(C)[C@H]3[C@@H](O)C[C@]2(C)[C@@]1(O)C(=O)CO`, the maximum recommended daily dose (mmol/kg-bw/day) (TherapeuticCategory: glucocorticoid) was 0.00102. On to `C[C@]12CC[C@H]3[C@@H](CCC4=CC(=O)CC[C@@H]43)[C@@H]1CC[C@@H]2O`, for which, under “TherapeuticCategory: anabolic”, the maximum recommended daily dose (mmol/kg-bw/day) was 0.0121.

Turning to `COc1cccc2c1C(=O)c1c(O)c3c(c(O)c1C2=O)C[C@@](O)(C(C)=O)C[C@@H]3O[C@H]1C[C@H](N)[C@H](O)[C@H](C)O1`, the maximum recommended daily dose (mmol/kg-bw/day) under setting [7] is 0.00205. For `C[C@@H](O)[C@H]1C(=O)N2C(C(=O)O)=C(SCCN=CN)C[C@H]12`, the maximum recommended daily dose (mmol/kg-bw/day) under setting [1] was 0.223. In the case of `Cc1ccc(/C(=C\CN2CCCC2)c2cccc(/C=C/C(=O)O)n2)cc1`, under setting [9], the maximum recommended daily dose (mmol/kg-bw/day) is 0.00153. Turning to `CNC(C)CC1CCCCC1` (configuration not stated), the maximum recommended daily dose (mmol/kg-bw/day) (TherapeuticCategory: andrenergic, nasal decongestant) is 0.0161. As to `CO[C@H]1C[C@H](O[C@H]2[C@H](C)[C@@H](O[C@@H]3O[C@H](C)C[C@H](N(C)C)[C@H]3O)[C@@H](C)C[C@]3(CO3)C(=O)[C@H](C)[C@@H](O)[C@@H](C)[C@@H](C)OC(=O)[C@@H]2C)O[C@@H](C)[C@@H]1O`, the maximum recommended daily dose (mmol/kg-bw/day) under setting [1] was 0.0484.

`NCCCC(O)(P(=O)(O)O)P(=O)(O)O`: the maximum recommended daily dose (mmol/kg-bw/day) (TherapeuticCategory: antiosteoporotic) was 0.00268.

With `C#C[C@]1(OC(C)=O)CC[C@H]2[C@@H]3CCC4=CC(=O)CC[C@@H]4[C@H]3CC[C@@]21C`, the maximum recommended daily dose (mmol/kg-bw/day) under setting [10] is 4.91e-05.

Turning to `O=C(OCC(COC(=O)c1cccnc1)(COC(=O)c1cccnc1)COC(=O)c1cccnc1)c1cccnc1`, under setting [4], the maximum recommended daily dose (mmol/kg-bw/day) is 0.00719. On to `CC(CN(C)C)CN1c2ccccc2S(=O)(=O)c2ccccc21` (configuration not stated), for which the maximum recommended daily dose (mmol/kg-bw/day) under setting [9] was 0.00202.

`C/C=C(/CC[C@@H](C)[C@H]1CC[C@H]2C3=CC[C@H]4[C@H](C)[C@@H](O)CC[C@]4(C)[C@H]3CC[C@]12C)C(C)C`: the maximum recommended daily dose (mmol/kg-bw/day) (TherapeuticCategory: anticholinesteremic) was 0.234. On to `C#C[C@]1(O)CC[C@H]2[C@@H]3CCC4=CC(=O)CC[C@]4(C)[C@H]3CC[C@@]21C`, for which the maximum recommended daily dose (mmol/kg-bw/day) under setting [10] is 0.00534.

Consider `CN(C)CCOC(c1ccccc1)c1ccccc1`, for which the maximum recommended daily dose (mmol/kg-bw/day) under setting [9] is 0.00326. Regarding `CCCCC[C@H](O)/C=C/[C@H]1[C@H](O)CC(=O)[C@@H]1C/C=C\CCCC(=O)O`, the maximum recommended daily dose (mmol/kg-bw/day) (TherapeuticCategory: oxytocic, abortifacient) was 7.09e-05. For `CCCC(CCC)C(N)=O`, the maximum recommended daily dose (mmol/kg-bw/day) under setting [11] was 0.232. As to `Cc1cc(C)nc(NS(=O)(=O)c2ccc(N)cc2)n1`, the maximum recommended daily dose (mmol/kg-bw/day) under setting [1] was 0.18.

Consider `CCCC(C)(COC(N)=O)COC(N)=O`, for which the maximum recommended daily dose (mmol/kg-bw/day) (TherapeuticCategory: anxiolytic) is 0.183. As to `CCCCc1oc2ccccc2c1C(=O)c1cc(I)c(OCCN(CC)CC)c(I)c1`, where the note is “TherapeuticCategory: antiarrhythmic, antianginal”, the maximum recommended daily dose (mmol/kg-bw/day) was 0.0414. For the molecule `NC12CC3CC(CC(C3)C1)C2`, the maximum recommended daily dose (mmol/kg-bw/day) (TherapeuticCategory: antiviral, antiparkinsonian) was 0.0441. As for `CC(C)NCC(O)c1ccc(O)c(O)c1` (configuration not stated), where the note is “TherapeuticCategory: bronchodilator”, the maximum recommended daily dose (mmol/kg-bw/day) was 0.000791. For the molecule `Clc1ccc(COC(Cn2ccnc2)c2ccc(Cl)cc2Cl)c(Cl)c1` (configuration not stated), under “TherapeuticCategory: topical antifungal”, the maximum recommended daily dose (mmol/kg-bw/day) is 0.144. With `CN1[C@@H]2CC(OC(=O)[C@H](CO)c3ccccc3)C[C@H]1[C@@H]1O[C@@H]12` (some centres not stated), the maximum recommended daily dose (mmol/kg-bw/day) under setting [12] was 1.09e-06. In the case of `C[C@]12COC(=O)C[C@@H]1CC[C@@H]1[C@@H]2CC[C@@]2(C)[C@H]1CC[C@]2(C)O`, under “TherapeuticCategory: androgen”, the maximum recommended daily dose (mmol/kg-bw/day) is 0.00109. As to `CCCCC(=O)O[C@H]1CC[C@H]2[C@@H]3CCc4cc(O)ccc4[C@H]3CC[C@]12C`, for the setting “TherapeuticCategory: estrogen”, the maximum recommended daily dose (mmol/kg-bw/day) is 0.0014. For `Cc1cc(C)cc(OCC2CNC(=O)O2)c1` (configuration not stated), under “TherapeuticCategory: skeletal muscle relaxant”, the maximum recommended daily dose (mmol/kg-bw/day) was 0.484.

Regarding `CC(=O)c1ccc2c(c1)N(CCCN1CCC(CCO)CC1)c1ccccc1S2`, the maximum recommended daily dose (mmol/kg-bw/day) under setting [5] is 0.0065. For `CO/N=C(\C(=O)N[C@@H]1C(=O)N2C(C(=O)O)=C(CSc3nnnn3C)CS[C@H]12)c1csc(N)n1`, the maximum recommended daily dose (mmol/kg-bw/day) under setting [1] is 0.13. Turning to `CC(=O)[C@@]12O[C@](C)(c3ccccc3)O[C@@H]1C[C@H]1[C@@H]3CCC4=CC(=O)CC[C@]4(C)[C@H]3CC[C@@]12C`, the maximum recommended daily dose (mmol/kg-bw/day) (TherapeuticCategory: acne treatment) is 0.00557.

For `O=C1C[C@@H]2OCC=C3CN4CC[C@]56c7ccccc7N1[C@H]5[C@H]2[C@H]3C[C@H]46`, the maximum recommended daily dose (mmol/kg-bw/day) (TherapeuticCategory: rat poison) is 0.00209.

For the molecule `CC(C)[N+](C)(CCOC(=O)C1c2ccccc2Oc2ccccc21)C(C)C`, under setting [12], the maximum recommended daily dose (mmol/kg-bw/day) was 0.00279.

With `CC[N+](C)(C)c1cccc(O)c1`, for the setting “TherapeuticCategory: cholinergic”, the maximum recommended daily dose (mmol/kg-bw/day) is 0.00347. Turning to `CCN(C)C(=O)Oc1cccc([C@H](C)N(C)C)c1`, the maximum recommended daily dose (mmol/kg-bw/day) (TherapeuticCategory: cholinesterase inhibitor) was 0.000799. As for `O=NN(CCCl)C(=O)N[C@@H]1[C@@H](O)[C@H](O)[C@@H](CO)O[C@@H]1O`, under setting [7], the maximum recommended daily dose (mmol/kg-bw/day) is 0.0129. Turning to `CN1C(=O)OC(C)(C)C1=O`, the maximum recommended daily dose (mmol/kg-bw/day) under setting [11] is 0.279. `CCN(CC)C(=O)N1CCN(C)CC1`: under “TherapeuticCategory: anthelmintic”, the maximum recommended daily dose (mmol/kg-bw/day) was 0.0301. With `CN1CCN2c3ncccc3Cc3ccccc3C2C1` (configuration not stated), under setting [2], the maximum recommended daily dose (mmol/kg-bw/day) was 0.00283.
